Patent publication US12703729B2, “GIP agonist compounds and methods” (Zealand Pharma A/S, priority 2014, dated 2026)
Starred links: 1 amine or outer side, 2 acyl side, 3 side chain; linkers in the order of their positions; H or OH if unused. Non-standard residues stand in square brackets, D forms with d. Residues, ends and D or L forms follow the SMILES beside them. Groups on a side chain read outwards from the residue. *: point of attachment. C20 diacid = O=C(O)CCCCCCCCCCCCCCCCCCC(=O)*; γGlu = O=C(O)[C@H](CCC(=O)[*:2])N[*:1]; AEEA = NCCOCCOCC(=O)O; Aib = CC(C)(N)C(=O)O

What was measured:
[1] = male, C57BL/6J, mouse, in vivo
[2] = in vivo; details: male, C57BL/6J, mouse; for bioavailability: Bioavailability s.c.; for half-life: 200 nmol/kg
[3] = molecular target: T1, human GIP R (Homo sapiens, UniProt P48546); assay: cell-based
T1 sequence (P48546 22-466): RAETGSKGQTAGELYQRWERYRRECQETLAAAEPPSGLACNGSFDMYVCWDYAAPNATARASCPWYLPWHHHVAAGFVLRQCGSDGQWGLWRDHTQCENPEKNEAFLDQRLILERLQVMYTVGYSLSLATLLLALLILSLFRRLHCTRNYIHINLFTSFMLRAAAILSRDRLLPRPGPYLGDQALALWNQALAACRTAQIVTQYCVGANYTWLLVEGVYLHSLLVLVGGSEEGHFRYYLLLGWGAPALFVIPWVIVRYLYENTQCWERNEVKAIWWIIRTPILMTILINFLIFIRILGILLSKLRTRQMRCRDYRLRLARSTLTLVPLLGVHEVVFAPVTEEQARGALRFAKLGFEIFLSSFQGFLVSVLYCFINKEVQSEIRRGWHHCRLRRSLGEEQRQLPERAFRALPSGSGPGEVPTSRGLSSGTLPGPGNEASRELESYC

[4] = molecular target: T2, human GIP receptor (GIP R) (Homo sapiens, UniProt P48546); assay: Activity assay at human GIP receptor, cAMP induction (AlphaScreen), Example 3
T2 sequence (P48546 22-466): T1 sequence (P48546 22-466)

[5] = molecular target: human GLP-1 receptor (GLP-1R) (Homo sapiens, UniProt P43220); assay: Activity assay at human GLP-1 receptor, cAMP induction (AlphaScreen), Example 3
[6] = iv, Terminal elimination half-life T½ i.v.
[7] = sc, Terminal elimination half-life T½ s.c.

Chain of human GLP-1 receptor (GLP-1R) (P43220 24-463): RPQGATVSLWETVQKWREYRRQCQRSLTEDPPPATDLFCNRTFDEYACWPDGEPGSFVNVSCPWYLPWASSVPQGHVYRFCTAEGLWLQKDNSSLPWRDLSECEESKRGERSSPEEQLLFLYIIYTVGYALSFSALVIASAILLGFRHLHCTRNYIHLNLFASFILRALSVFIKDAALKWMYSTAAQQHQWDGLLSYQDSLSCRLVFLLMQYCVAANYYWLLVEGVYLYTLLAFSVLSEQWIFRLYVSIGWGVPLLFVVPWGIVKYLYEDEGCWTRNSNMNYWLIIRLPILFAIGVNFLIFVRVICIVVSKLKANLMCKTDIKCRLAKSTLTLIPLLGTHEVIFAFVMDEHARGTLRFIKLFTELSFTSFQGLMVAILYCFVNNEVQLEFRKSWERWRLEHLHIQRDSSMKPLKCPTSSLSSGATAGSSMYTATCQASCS

| Structure (SMILES) | Bioavailability s.c. [1] | Terminal elimination half-life T½ i.v. ([1]; iv, 200 nmol/kg) | Terminal elimination half-life T½ s.c. ([1]; sc, 200 nmol/kg) | bioavailability [2] | half-life [2, 6] | Tmax ([2]; sc) | half-life [2, 7] | EC50 [3] | EC50 [4] | EC50 [5] |
| --- | --- | --- | --- | --- | --- | --- | --- | --- | --- | --- |
| CC[C@H](C)[C@H](NC(=O)[C@H](CCCCN)NC(=O)[C@H](CC(=O)O)NC(=O)[C@H](CC(C)C)NC(=O)[C@H](CCC(=O)O)NC(=O)[C@@H](NC(=O)[C@H](CO)NC(=O)[C@H](Cc1ccc(O)cc1)NC(=O)[C@H](CC(=O)O)NC(=O)[C@H](CO)NC(=O)[C@@H](NC(=O)[C@H](Cc1ccccc1)NC(=O)[C@@H](NC(=O)CNC(=O)[C@H](CCC(=O)O)NC(=O)C(C)(C)NC(=O)[C@@H](N)Cc1ccc(O)cc1)[C@@H](C)O)[C@@H](C)CC)[C@@H](C)CC)C(=O)N[C@@H](C)C(=O)N[C@@H](C)C(=O)N[C@@H](CCC(N)=O)C(=O)N[C@@H](CC(=O)O)C(=O)N[C@@H](Cc1ccccc1)C(=O)N[C@H](C(=O)N[C@@H](CC(N)=O)C(=O)N[C@@H](Cc1c[nH]c2ccccc12)C(=O)N[C@@H](CC(C)C)C(=O)N[C@@H](CC(C)C)C(=O)N[C@@H](C)C(=O)NCC(=O)N1CCC[C@H]1C(=O)N[C@@H](CO)C(=O)N[C@@H](CO)C(=O)NCC(=O)N[C@@H](C)C(=O)N1CCC[C@H]1C(=O)N1CCC[C@H]1C(=O)N1CCC[C@H]1C(=O)N[C@@H](CO)C(=O)N[C@@H](CCCCNC(=O)COCCOCCNC(=O)COCCOCCNC(=O)CC[C@H](NC(=O)CCCCCCCCCCCCCCCCCCC(=O)O)C(=O)O)C(N)=O)C(C)C [Compound 16] (H-Y[Aib]EGTFISDYSIELDKIAAQDFVNWLLAGPSSGAPPPSK([AEEA-AEEA-γGlu-C20 diacid])-NH2) | 88% | 19.2 h | 16.7 h | 81% | 23.3 h | 8 h | 23.6 h | 0.016 nM | 0.012 nM | > 10 nM |
| CC[C@H](C)[C@H](NC(=O)[C@H](CCCCN)NC(=O)[C@H](CC(=O)O)NC(=O)[C@H](CC(C)C)NC(=O)[C@H](CCC(=O)O)NC(=O)[C@H](CCCCNC(=O)COCCOCCNC(=O)COCCOCCNC(=O)CC[C@H](NC(=O)CCCCCCCCCCCCCCCCCCC(=O)O)C(=O)O)NC(=O)[C@H](CO)NC(=O)[C@H](Cc1ccc(O)cc1)NC(=O)[C@H](CC(=O)O)NC(=O)[C@H](CO)NC(=O)[C@@H](NC(=O)[C@H](Cc1ccccc1)NC(=O)[C@@H](NC(=O)CNC(=O)[C@H](CCC(=O)O)NC(=O)C(C)(C)NC(=O)[C@@H](N)Cc1ccc(O)cc1)[C@@H](C)O)[C@@H](C)CC)C(=O)N[C@@H](C)C(=O)N[C@@H](CCC(N)=O)C(=O)N[C@@H](CCCNC(=N)N)C(=O)N[C@@H](C)C(=O)N[C@@H](Cc1ccccc1)C(=O)N[C@H](C(=O)N[C@@H](CCC(=O)O)C(=O)N[C@@H](Cc1c[nH]c2ccccc12)C(=O)N[C@@H](CC(C)C)C(=O)N[C@@H](CC(C)C)C(=O)N[C@@H](C)C(=O)N[C@@H](CCC(N)=O)C(=O)NCC(=O)N1CCC[C@H]1C(=O)N[C@@H](CO)C(=O)N[C@@H](CO)C(=O)NCC(=O)N[C@@H](C)C(=O)N1CCC[C@H]1C(=O)N1CCC[C@H]1C(=O)N1CCC[C@H]1C(=O)N[C@@H](CO)C(N)=O)[C@@H](C)CC [Compound 35] (H-Y[Aib]EGTFISDYSK([AEEA-AEEA-γGlu-C20 diacid])ELDKIAQRAFIEWLLAQGPSSGAPPPS-NH2) |  |  |  | 73% | 14.5 h | 4 h | 14.5 h | 0.008 nM | 0.011 nM | > 3 nM |
| CC[C@H](C)[C@H](NC(=O)[C@H](Cc1ccccc1)NC(=O)[C@H](C)NC(=O)[C@H](CCC(N)=O)NC(=O)[C@H](C)NC(=O)[C@H](C)NC(=O)[C@H](CCCCNC(=O)COCCOCCNC(=O)COCCOCCNC(=O)CN1CCN(C(=O)CCCCCCCCCCCCCCCCCCC(=O)O)CC1)NC(=O)[C@H](CCCCN)NC(=O)[C@H](CC(=O)O)NC(=O)[C@H](CC(C)C)NC(=O)[C@H](CCC(=O)O)NC(=O)[C@@H](NC(=O)[C@H](CO)NC(=O)[C@H](Cc1ccc(O)cc1)NC(=O)[C@H](CC(=O)O)NC(=O)[C@H](CO)NC(=O)[C@@H](NC(=O)[C@H](Cc1ccccc1)NC(=O)[C@@H](NC(=O)CNC(=O)[C@H](CCC(=O)O)NC(=O)C(C)(C)NC(=O)[C@@H](N)Cc1ccc(O)cc1)[C@@H](C)O)[C@@H](C)CC)[C@@H](C)CC)C(=O)N[C@@H](CCC(=O)O)C(=O)N[C@@H](Cc1c[nH]c2ccccc12)C(=O)N[C@@H](CC(C)C)C(=O)N[C@@H](CC(C)C)C(=O)N[C@@H](C)C(=O)N[C@@H](CCC(N)=O)C(=O)NCC(=O)N1CCC[C@H]1C(=O)N[C@@H](CO)C(=O)N[C@@H](CO)C(=O)NCC(=O)N[C@@H](C)C(=O)N1CCC[C@H]1C(=O)N1CCC[C@H]1C(=O)N1CCC[C@H]1C(=O)N[C@@H](CO)C(N)=O [Compound 41] |  |  |  | 70% | 17.6 h | 8 h | 16.5 h | 0.014 nM | 0.01 nM | > 10 nM |
